# Laboratory results reported in patent US5302610A, “Renal-selective biphenylmethyl imidazole angiotensin II antagonists for treatment of hypertension” (G. D. Searle & Co., priority 1991, dated 1994).
# What was measured:
# [1] = tested on: vascular smooth muscle, AII response (rabbit aortic rings); test: Assay B: In Vitro Vascular Smooth Muscle Response for AII (rabbit aortic rings); format: cell-based, rabbit (male New Zealand white); settings: Oryctolagus cuniculus, 5 min, antagonist 10^-5 M, three rabbits, read-out: Assay B PA2 (converted)
# Description: Compound of Example #5 was tested for AII antagonist activity in rabbit aortic rings. Male New Zealand white rabbits (2-2.5 kg) were sacrificed using an overdose of pentobarbital and exsanguinated via the carotid arteries. The thoracic aorta was removed, cleaned of adherent fat and connective tissue and then cut into 3-mm ring segments. The endothelium was removed from the rings by gently sliding a rolled-up piece of filter paper into the vessel lumen. The rings were then mounted in a water-jacketed tissue bath, maintained at 37° C., between moveable and fixed ends of a stainless steel wire with the moveable end attached to an FT03 Grass transducer coupled to a Model 7D Grass Polygraph for recording isometric force responses. The bath was filled with 20 ml of oxygenated (95% oxygen/5% carbon dioxide) Krebs solution of the following composition […]: 130 NaCl, 15 NaHCO3, 15 KCl, 1.2 NaH2 PO4, 1.2 MgSO4, 2.5 CaCl2, and 11.4 glucose. The preparations were equilibrated for one hour before approximately one gram of passive tension was placed on the rings. Angiotensin II concentration-response curves were then recorded (3×10^-10 to 1×10^-5 M). […] The effectiveness of the test compound was expressed in terms of pA2 values and were calculated according to H. O. Schild [Br. J. Pharmacol. Chemother., 189-206 (1947)]. […] The test compound was evaluated in aorta rings from three rabbits.
# AII receptor = test: Assay C: In Vivo Intravenous Pressor Assay Response for AII Antagonists; parameters: species or system male Sprague-Dawley rats, ganglion-blocked
# Description: The in vivo AII receptor antagonist activity of Example #5 compound was examined in ganglion-blocked male Sprague-Dawley rats (Harlan Sprague-Dawley, Inc.), weighing 300-400 g, anesthetized with 100 mg/kg i.p. Inactin. Catheters (PE-50) were implanted in a femoral artery and vein to measure mean arterial pressure and to administer compounds, respectively. A tracheal catheter maintained airway patency. For intravenous experiments, autonomic neurotransmission was blocked by treatment with mecamylamine (3 mg/kg i.v.) and atropine (400 μg/kg i.v.). AII (30 ng/kg i.v., 20-25 μl volume) was administered four times at 10 minute intervals to establish a reproducible control pressor response. Example #5 compound was then administered at 1, 3 and 10 mg/kg in separate groups of rats as an intravenous bolus (0.2 ml volume) before rechallenging with AII (30 ng/kg, 20-25 μl volume) for the following 2 hours. For intraduodenal experiments, rats were anesthetized as above, but ganglion blockade was not performed. AII was administered at 100 ng/kg i.v. (20-25 μl volume), and was administered at 10, 30 and 100 mg/kg in separate groups of rats as an intraduodenal bolus (0.2 ml volume). Angiotensin II injections were then given 5, 10, 20, 30, 45, 60, 75, 90, and 120 minutes after administration of the test compound and response of arterial pressure was monitored. The response to AII was calculated as percent of the control response and then the percent inhibition was calculated as 100 minus the percent control response. Duration of action of a test compound was defined as the time from peak percent inhibition to 50% of peak. The test compound was tested in two rats and the values for the two rats were averaged.
# [2] = tested on: response to angiotensin II (urinary sodium excretion); test: Assay E: Urinary Sodium Excretion, acute administration with AII infusion; format: in vivo, male Sprague-Dawley rats, conscious; settings: for Urinary Sodium Excretion: means±SE
# Description: antagonist compound (Ex. #5) and a glutamyl conjugate (Ex. #81) of the Ex. #5 AII antagonist compound to determine the renal selectivity of the conjugate. Male Sprague-Dawley rats (300-350 g body weight) had catheters implanted into the femoral artery and vein under chloral hydrate anesthesia (400 mg/kg, i.p.). After 2 to 4 days of recovery, on the experimental day, a urinary bladder catheter was implanted under methohexital anesthesia (50 mg/kg, i.p.). Rats were placed in a restraint device to allow for urine collection and mean arterial pressure measurements. After 1-2 hours of recovery, in conscious rats, an isotonic saline infusion (50 μl/min) was started and continued for the duration of the experiment. After one hour equilibration to the saline infusion, a 20 minute control urine and mean arterial pressure collection were obtained. Then angiotensin II was infused at 20 ng/min for 25 minutes. After 5 minutes of angiotensin II infusion, a 20 minute experimental collection was made. Finally, 5 minutes after the end of angiotensin II infusion, a 20 minute recovery collection was obtained. In separate groups of rats, vehicle (0.3 ml isotonic saline, i.v. bolus), Example #5 angiotensin II antagonist compound (100 mg/kg, i.v. bolus), or Example #81 conjugate (100 mg/kg, i.v. bolus) was administered 1-2 minutes prior to onset of angiotensin II infusion. […] Results are shown in Tables XIII and XIV and also in FIGS. 3 and 4. Data are presented as means±SE. Repeated measures analysis of variance was used for main effects and interactions and Tukey's HSD test was used for pairwise comparisons among means. Statistical significance was defined as p<0.05.
smiles,measurement,setting,value
CCCCc1nc(Cl)c(CO)n1Cc1ccc(-c2ccccc2C(=O)O)cc1 [Example 5],Kb,[1],74.1 nM
same,% Control of AII Pressor Response,"AII receptor; 1 mg/kg i.v., 1 min",80%
same,% Control of AII Pressor Response,"AII receptor; 1 mg/kg i.v., 5 min",85%
same,% Control of AII Pressor Response,"AII receptor; 1 mg/kg i.v., 10 min",92%
same,% Control of AII Pressor Response,"AII receptor; 1 mg/kg i.v., 20 min",90%
same,% Control of AII Pressor Response,"AII receptor; 1 mg/kg i.v., 30 min",88%
same,% Control of AII Pressor Response,"AII receptor; 1 mg/kg i.v., 40 min",86%
same,% Control of AII Pressor Response,"AII receptor; 1 mg/kg i.v., 50 min",86%
same,% Control of AII Pressor Response,"AII receptor; 1 mg/kg i.v., 60 min",89%
same,% Control of AII Pressor Response,"AII receptor; 1 mg/kg i.v., 75 min",93%
same,% Control of AII Pressor Response,"AII receptor; 1 mg/kg i.v., 90 min",95%
same,% Control of AII Pressor Response,"AII receptor; 1 mg/kg i.v., 120 min",100%
same,% Control of AII Pressor Response,"AII receptor; 3 mg/kg i.v., 1 min",39%
same,% Control of AII Pressor Response,"AII receptor; 3 mg/kg i.v., 5 min",55%
same,% Control of AII Pressor Response,"AII receptor; 3 mg/kg i.v., 10 min",63%
same,% Control of AII Pressor Response,"AII receptor; 3 mg/kg i.v., 20 min",68%
same,% Control of AII Pressor Response,"AII receptor; 3 mg/kg i.v., 30 min",74%
same,% Control of AII Pressor Response,"AII receptor; 3 mg/kg i.v., 40 min",75%
same,% Control of AII Pressor Response,"AII receptor; 3 mg/kg i.v., 50 min",75%
same,% Control of AII Pressor Response,"AII receptor; 3 mg/kg i.v., 60 min",81%
same,% Control of AII Pressor Response,"AII receptor; 3 mg/kg i.v., 75 min",88%
same,% Control of AII Pressor Response,"AII receptor; 3 mg/kg i.v., 90 min",92%
same,% Control of AII Pressor Response,"AII receptor; 3 mg/kg i.v., 120 min",98%
same,% Control of AII Pressor Response,"AII receptor; 10 mg/kg i.v., 1 min",4%
same,% Control of AII Pressor Response,"AII receptor; 10 mg/kg i.v., 5 min",16%
same,% Control of AII Pressor Response,"AII receptor; 10 mg/kg i.v., 10 min",23%
same,% Control of AII Pressor Response,"AII receptor; 10 mg/kg i.v., 20 min",31%
same,% Control of AII Pressor Response,"AII receptor; 10 mg/kg i.v., 30 min",40%
same,% Control of AII Pressor Response,"AII receptor; 10 mg/kg i.v., 40 min",47%
same,% Control of AII Pressor Response,"AII receptor; 10 mg/kg i.v., 50 min",51%
same,% Control of AII Pressor Response,"AII receptor; 10 mg/kg i.v., 60 min",60%
same,% Control of AII Pressor Response,"AII receptor; 10 mg/kg i.v., 75 min",71%
same,% Control of AII Pressor Response,"AII receptor; 10 mg/kg i.v., 90 min",80%
same,% Control of AII Pressor Response,"AII receptor; 10 mg/kg i.v., 120 min",96%
same,Urinary Sodium Excretion,"[2]; 100 mg/kg i.v. bolus, Recovery after AII infusion",2.6 ± 0.7 μEq/min/100 g BW
same,Urinary Sodium Excretion,"[2]; 100 mg/kg i.v. bolus, during AII infusion 20 ng/min, * in table",2.5 ± 1.1 μEq/min/100 g BW
same,antinatriuretic (urinary sodium excretion) response to angiotensin II,"[2]; 100 mg/kg, i.v. bolus, AII 20 ng/min",prevented both responses to angiotensin II
same,Urinary Sodium Excretion,[2]; Control period (before dosing),2.4 ± 0.5 μEq/min/100 g BW
